From PubChem BioAssay AID1918947 (Molecular Pharmacology Branch, DTP, NCI, 2023) come the findings set out here.

pIC50: −log10 of the molar value. “And” between values parts separate entries of the source, which are not always exact repeats. Equal values may be shown once. Some results are limits rather than exact numbers.

Usually pIC50 stands for the IC50 on a negative log10 scale, so that one unit is a factor of ten. By viability, T/C is commonly meant the result in the treated group divided by that in the control group, in per cent.

The test has as its system A498 complex spheroid viability. Briefly: Anticancer human tumor A498 cell line growth inhibition.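 As to all read-outs here: spheroids exposed to agents for seven days before readout.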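 As to viability, T/C: 100% = DMSO vehicle-treated spheroids.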 The following applies: for viability, T/C: stronger effect = lower value. The essentials: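 Drug combinations with the LSD1 inhibitor iadademstat tested on tumor cells co-cultured as spheroids with endothelial cells and mesenchymal stem cells. Concentrations descended in half-log increments from clinical Cmax or 10 microM.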

The mark [1] stands for this setting: curve of first compound, second compound 0.1 µM.
[2] abbreviates: curve of first compound, second compound 0.316 µM.
Setting [3] is: curve of first compound, second compound 1 µM.
Where [4] appears, read: curve of first compound, second compound 3.16 µM.
Setting [5] is: curve of first compound, second compound 10 µM.
Setting [6] is: second compound 0.1 µM, first compound 0.00949 µM.
Where [7] appears, read: second compound 0.1 µM, first compound 0.03 µM.
Setting [8] is: second compound 0.1 µM, first compound 0.0949 µM.
The mark [9] stands for this setting: second compound 0.1 µM, first compound 0.3 µM.
[10] abbreviates: second compound 0.316 µM, first compound 0.00949 µM.
Setting [11] is: second compound 0.316 µM, first compound 0.03 µM.
Setting [12] is: second compound 0.316 µM, first compound 0.0949 µM.
[13] abbreviates: second compound 0.316 µM, first compound 0.3 µM.
The mark [14] stands for this setting: second compound 1 µM, first compound 0.00949 µM.
[15] abbreviates: second compound 1 µM, first compound 0.03 µM.
Where [16] appears, read: second compound 1 µM, first compound 0.0949 µM.
The mark [17] stands for this setting: second compound 1 µM, first compound 0.3 µM.
Where [18] appears, read: second compound 3.16 µM, first compound 0.00949 µM.
[19] abbreviates: second compound 3.16 µM, first compound 0.03 µM.
The mark [20] stands for this setting: second compound 3.16 µM, first compound 0.0949 µM.
Setting [21] is: second compound 3.16 µM, first compound 0.3 µM.
Setting [22] is: second compound 10 µM, first compound 0.00949 µM.
The mark [23] stands for this setting: second compound 10 µM, first compound 0.03 µM.
The mark [24] stands for this setting: second compound 10 µM, first compound 0.0949 µM.
The mark [25] stands for this setting: second compound 10 µM, first compound 0.3 µM.

With `COc1cc(Nc2ncc3c(n2)-c2ccc(Cl)cc2C(c2c(F)cccc2OC)=NC3)ccc1C(=O)O` + NC1CC1c1ccc(-c2cccc(O)c2)cc1, the pIC50 is 6.73 under setting [1]; 6.55 under setting [2]; 7.09 under setting [3]; 7.46 under setting [4]; 7.18 under setting [5]. Moreover, the viability, T/C reads like this: (second compound 0.1 µM, first compound 0.00316 µM) 76.7%; (second compound 0.1 µM, first compound 0.01 µM) 65.5%; (second compound 0.1 µM, first compound 0.0316 µM) 58.5%; (second compound 0.1 µM, first compound 0.1 µM) 54%; (second compound 0.1 µM, first compound 0.316 µM) 49.4%; (second compound 0.1 µM, first compound 1 µM) 41%. In addition, the viability, T/C (second compound 0.316 µM, first compound 0.00316 µM) is 85.2%; the viability, T/C (second compound 0.316 µM, first compound 0.01 µM) was 72.3%; the viability, T/C (second compound 0.316 µM, first compound 0.0316 µM) is 66.9%; the viability, T/C (second compound 0.316 µM, first compound 0.1 µM) was 56%; the viability, T/C (second compound 0.316 µM, first compound 0.316 µM) is 52.1%; the viability, T/C (second compound 0.316 µM, first compound 1 µM) was 39.9%. Further, the viability, T/C by setting is: (second compound 1 µM, first compound 0.00316 µM) 78.7%; (second compound 1 µM, first compound 0.01 µM) 60.7%; (second compound 1 µM, first compound 0.0316 µM) 58%; (second compound 1 µM, first compound 0.1 µM) 48.2%; (second compound 1 µM, first compound 0.316 µM) 44.8%; (second compound 1 µM, first compound 1 µM) 34.6%. The viability, T/C reads like this: (second compound 3.16 µM, first compound 0.00316 µM) 71.1%; (second compound 3.16 µM, first compound 0.01 µM) 53.8%; (second compound 3.16 µM, first compound 0.0316 µM) 52.6%; (second compound 3.16 µM, first compound 0.1 µM) 46.4%; (second compound 3.16 µM, first compound 0.316 µM) 42.2%; (second compound 3.16 µM, first compound 1 µM) 36.9%. Further, the viability, T/C is 76.6% (second compound 10 µM, first compound 0.00316 µM); 59.3% (second compound 10 µM, first compound 0.01 µM); 54.1% (second compound 10 µM, first compound 0.0316 µM); 50.8% (second compound 10 µM, first compound 0.1 µM); 40.1% (second compound 10 µM, first compound 0.316 µM); 31.6% (second compound 10 µM, first compound 1 µM).
For the compound `Cn1ncnc1C1c2n[nH]c(=O)c3cc(F)cc(c23)NC1c1ccc(F)cc1` (centres undefined), the viability, T/C by setting is: (compound 0.000316 µM) 98.4% and 110%; (compound 0.001 µM) 99.4% and 107%; (compound 0.00316 µM) 97.5% and 102%; (compound 0.01 µM) 106% and 103%; (compound 0.0316 µM) 95% and 99%; (compound 0.1 µM) 101% and 94.5%. Moreover, under “curve of compound”, the pIC50 is less than 7.00.
Turning to `CCN(c1cc(-c2ccc(CN3CCOCC3)cc2)cc(C(=O)NCc2c(C)cc(C)[nH]c2=O)c1C)C1CCOCC1`, the viability, T/C by setting is: (compound 0.00949 µM) 98.7% and 101%; (compound 0.03 µM) 108% and 107%; (compound 0.0949 µM) 98.7% and 102%; (compound 0.3 µM) 103%; (compound 0.949 µM) 107% and 105%; (compound 3 µM) 112% and 113%. The pIC50 (curve of compound) is less than 5.52.
As for `COc1cc(C2c3cc4c(cc3C(OC3OC5COC(C)OC5C(O)C3O)C3COC(=O)C23)OCO4)cc(OC)c1O` (centres undefined) + NC1CCC(NC2CC2c2ccccc2)CC1, the pIC50 under setting [1] is less than 5.52; the pIC50 under setting [2] is less than 5.52; the pIC50 under setting [3] is less than 5.52; the pIC50 under setting [4] is 5.63; the pIC50 under setting [5] was 5.85. Besides, the viability, T/C runs as follows: under setting [6], 81.8%; under setting [7], 67.1%; under setting [8], 59.9%; under setting [9], 58.5%; (second compound 0.1 µM, first compound 0.949 µM) 55.7%; (second compound 0.1 µM, first compound 3 µM) 54.5%. The viability, T/C is 79.4% under setting [10]; 71.2% under setting [11]; 70.3% under setting [12]; 67.5% under setting [13]; 59.6% (second compound 0.316 µM, first compound 0.949 µM); 57.5% (second compound 0.316 µM, first compound 3 µM). The viability, T/C was 82% under setting [14]; 69.3% under setting [15]; 68.6% under setting [16]; 62.9% under setting [17]; 57.6% (second compound 1 µM, first compound 0.949 µM); 57.2% (second compound 1 µM, first compound 3 µM). The viability, T/C by setting is: under setting [18], 72.5%; under setting [19], 69.6%; under setting [20], 63.5%; under setting [21], 60.7%; (second compound 3.16 µM, first compound 0.949 µM) 52.5%; (second compound 3.16 µM, first compound 3 µM) 49.2%. Also, the viability, T/C is, setting by setting: under setting [22], 64.3%; under setting [23], 66.8%; under setting [24], 61.5%; under setting [25], 63.4%; (second compound 10 µM, first compound 0.949 µM) 48.8%; (second compound 10 µM, first compound 3 µM) 45.3%.
As for `CCc1c2c(nc3ccc(O)cc13)-c1cc3c(c(=O)n1C2)COC(=O)[C@]3(O)CC` + NC1CC1c1ccc(-c2cccc(O)c2)cc1, the pIC50 is greater than 9.02 under setting [1]; greater than 9.02 under setting [2]; greater than 9.02 under setting [3]; greater than 9.02 under setting [4]; greater than 9.02 under setting [5]. Besides, the viability, T/C by setting is: (second compound 0.1 µM, first compound 0.000949 µM) 39.9%; (second compound 0.1 µM, first compound 0.003 µM) 34.3%; under setting [6], 23.6%; under setting [7], 0.69%; under setting [8], 0.04%; under setting [9], 0.13%. The viability, T/C is, setting by setting: (second compound 0.316 µM, first compound 0.000949 µM) 37.5%; (second compound 0.316 µM, first compound 0.003 µM) 36.1%; under setting [10], 25.2%; under setting [11], 1.05%; under setting [12], 0.04%; under setting [13], 0.13%. Besides, the viability, T/C (second compound 1 µM, first compound 0.000949 µM) was 42.8%; the viability, T/C (second compound 1 µM, first compound 0.003 µM) was 31.7%; the viability, T/C under setting [14] is 23.8%; the viability, T/C under setting [15] was 0.94%; the viability, T/C under setting [16] was 0.05%; the viability, T/C under setting [17] was 0.13%. Further, the viability, T/C runs as follows: (second compound 3.16 µM, first compound 0.000949 µM) 43%; (second compound 3.16 µM, first compound 0.003 µM) 32%; under setting [18], 24.8%; under setting [19], 1.16%; under setting [20], 0.06%; under setting [21], 0.51%. The viability, T/C is 41% (second compound 10 µM, first compound 0.000949 µM); 30.1% (second compound 10 µM, first compound 0.003 µM); 23.3% under setting [22]; 0.83% under setting [23]; 0.14% under setting [24]; 0.99% under setting [25].
